From patent US6489358B2, “Pharmaceutical compositions containing mupirocin” (Agis Industries (1983) Ltd., priority 2000, dated 2002)

Columns and labels:
[1] = Solubility of 2% solutions (calculated as free acid) in pharmaceutically acceptable hydrophilic solvents; type: physicochemical
Description: The following table presents the solubility of mupirocin calcium amorphous, compared to the solubility of the crystalline form, in various pharmaceutically acceptable hydrophilic solvents. We prepared 2% solutions (calculated as free acid), similar to the commercially available products.

[2] = Stability of 2% solution on heating (Δ % impurities); type: physicochemical
Method: The stability of Mupirocin Calcium amorphous in various acceptable pharmaceutical solvents was tested by heating a 2% solution to 80° C. for 24 hours or by heating it to 40° for 1 month. Bactroban cream was used as a reference.

[3] = from U.S Pat. No. 4,916,155; cited from earlier work
[4] = 2% solution (calculated as free acid) in Glycerine
[5] = 2% solution (calculated as free acid) in Hexylene glycol
[6] = 2% solution in Propylene Glycol

Compound | Solubility (After heating for 30 min. at 70° C.) [1, 4] | Solubility (at room temperature) [1, 4] | Solubility (at room temperature) [1, 5] | Solubility in hydrophilic solvents compared with the crystalline form ([1]; hydrophilic solvents) | Δ % impurities (after heating for 1 month at 40° C.) ([2]; 2% solution in Glycerine) [%] | Δ % impurities (after heating for 24 h at 80° C.) ([2]; 2% solution in Glycerine) [%] | Δ % impurities (after heating for 1 month at 40° C.) ([2]; 2% solution in Hexylene Glycol) [%] | Δ % impurities (after heating for 24 h at 80° C.) ([2]; 2% solution in Hexylene Glycol) [%] | Δ % impurities (after heating for 1 month at 40° C.) [2, 6] [%] | Δ % impurities (after heating for 24 h at 80° C.) [2, 6] [%] | Δ % impurities (after heating for 1 month at 40° C.) ([2]; 2% solution in Water) [%] | Δ % impurities (after heating for 24 h at 80° C.) ([2]; 2% solution in Water) [%] | Stability of the solution ([2]; solution in hexylene glycol) | Solubility (After heating for 30 min. at 70° C.) ([1]; 2% solution (calculated as free acid) in Glycerine, calcium dihydrate) | Solubility (After heating for 30 min. at 70° C.) [1, 5] | Solubility (at room temperature) ([1]; 2% solution (calculated as free acid) in Hexylene glycol, calcium dihydrate) | Solubility (at room temperature) ([1]; 2% solution (calculated as free acid) in Propylene glycol, calcium dihydrate) | Solubility (After heating for 30 min. at 70° C.) ([1]; 2% solution (calculated as free acid) in Water) | Solubility (at room temperature) ([1]; 2% solution (calculated as free acid) in Water, calcium dihydrate) | Solubility in water [3]
C/C(=C\C(=O)OCCCCCCCCC(=O)[O-])C[C@@H]1OC[C@H](C[C@@H]2O[C@H]2[C@@H](C)[C@H](C)O)[C@@H](O)[C@H]1O.C/C(=C\C(=O)OCCCCCCCCC(=O)[O-])C[C@@H]1OC[C@H](C[C@@H]2O[C@H]2[C@@H](C)[C@H](C)O)[C@@H](O)[C@H]1O.O.O.[Ca+2] [Mupirocin Ca amorphous, amorphous calcium mupirocin] | Soluble | Not soluble | Soluble | much more soluble in hydrophilic solvents | 29.2 | 29.4 | 1.5 | 2 | 7.5 | 8.7 | 36.7 | 36.4 | good stability |  |  |  |  |  |  | 
C/C(=C\C(=O)OCCCCCCCCC(=O)[O-])C[C@@H]1OC[C@H](C[C@@H]2O[C@H]2[C@@H](C)[C@H](C)O)[C@@H](O)[C@H]1O.C/C(=C\C(=O)OCCCCCCCCC(=O)[O-])C[C@@H]1OC[C@H](C[C@@H]2O[C@H]2[C@@H](C)[C@H](C)O)[C@@H](O)[C@H]1O.O.O.[Ca+2] [Mupirocin Ca crystalline, crystalline Mupirocin calcium dihydrate] |  |  |  |  |  |  |  |  |  |  |  |  |  | Partially soluble | Not soluble | Not soluble | Soluble | Not soluble | Not soluble | poor solubility in water
